Measurements taken from ChEMBL document CHEMBL1201862, “PubChem BioAssay data set” (2004).
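Method: 48-hour compound exposure of cells in 96-well plates, five concentrations, linear interpolation of endpoints. GI50 is the concentration that inhibits growth by half.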 Active and inactive are the calls of the source. Rule as the data show it: active = GI50 up to about 1.1 µM and inactive = higher.

Legend:
Experiment in all cases: NCI anticancer screen, dose series, 48 h
A549 = system: A549
CCRF-CEM = system: CCRF-CEM
HCC 2998 = system: HCC 2998
HCT-116 = system: HCT-116
HL-60 = system: HL-60
M14 = system: M14
MOLT-4 = system: MOLT-4
Malme-3M = system: Malme-3M
NCI-H460 = system: NCI-H460
NCI-H522 = system: NCI-H522
OVCAR-5 = system: OVCAR-5
RXF 393 = system: RXF 393
SK-OV-3 = system: SK-OV-3
SNB-75 = system: SNB-75
UO-31 = system: UO-31
CAKI-1 = system: CAKI-1
NCI-H226 = system: NCI-H226
RPMI-8226 = system: RPMI-8226
SF-268 = system: SF-268
NCI/ADR-RES = system: NCI/ADR-RES

Compound	GI50 (A549)	GI50 (CCRF-CEM)	GI50 (HCC 2998)	GI50 (HCT-116)	GI50 (HL-60)	GI50 (M14)	GI50 (MOLT-4)	GI50 (Malme-3M)	GI50 (NCI-H460)	GI50 (NCI-H522)	GI50 (OVCAR-5)	GI50 (RXF 393)	GI50 (SK-OV-3)	GI50 (SNB-75)	GI50 (UO-31)	GI50 (CAKI-1)	GI50 (NCI-H226)	GI50 (RPMI-8226)	GI50 (SF-268)	GI50 (NCI/ADR-RES)
COC1OC2=CCC3C(=O)NC(=O)C3C2[C@H](OCc2ccccc2)C1OCc1ccccc1 (stereo not given in full)	18.9 µM (inactive)	1.15 µM (inactive)	3.74 µM (inactive)	1.55 µM (inactive)	1.79 µM (inactive)	1.81 µM (inactive)	1.5 µM (inactive)	1.77 µM (inactive)	17.9 µM (inactive)	1.67 µM (inactive)	15.7 µM (inactive)	1.61 µM (inactive)	17.1 µM (inactive)	17.3 µM (inactive)	17.7 µM (inactive)	–	–	–	–	–
CSc1nsc(-c2ccccc2)[s+]1.[O-][Cl+3]([O-])([O-])[O-]	> 100 µM (inactive)	> 100 µM (inactive)	> 100 µM (inactive)	> 100 µM (inactive)	72.1 µM (inactive)	> 100 µM (inactive)	> 100 µM (inactive)	> 100 µM (inactive)	> 100 µM (inactive)	> 100 µM (inactive)	–	> 100 µM (inactive)	> 100 µM (inactive)	> 100 µM (inactive)	> 100 µM (inactive)	> 100 µM (inactive)	> 100 µM (inactive)	> 100 µM (inactive)	> 100 µM (inactive)	–
C/C(=N/NC(N)=S)c1ccc2ccccc2c1	24.4 µM (inactive)	22.5 µM (inactive)	16 µM (inactive)	23.8 µM (inactive)	15 µM (inactive)	11.8 µM (inactive)	21.9 µM (inactive)	41 µM (inactive)	24.2 µM (inactive)	17.6 µM (inactive)	24 µM (inactive)	35.3 µM (inactive)	21.9 µM (inactive)	25.9 µM (inactive)	–	–	39.8 µM (inactive)	–	23.3 µM (inactive)	–
CCCCCCCSCC(O)COC(c1ccccc1)(c1ccccc1)c1ccccc1 (stereo not given)	26.7 µM (inactive)	29.7 µM (inactive)	19.4 µM (inactive)	40.6 µM (inactive)	26.9 µM (inactive)	61.7 µM (inactive)	28.4 µM (inactive)	60 µM (inactive)	30.1 µM (inactive)	35.2 µM (inactive)	34.8 µM (inactive)	–	> 100 µM (inactive)	–	5.81 µM (inactive)	60.4 µM (inactive)	18.1 µM (inactive)	17.5 µM (inactive)	20.3 µM (inactive)	72.1 µM (inactive)
C/C(=N\Oc1cc(Cl)ncn1)c1ccccn1	86.7 µM (inactive)	34.4 µM (inactive)	17.4 µM (inactive)	> 100 µM (inactive)	–	18.4 µM (inactive)	39.2 µM (inactive)	61.9 µM (inactive)	25.3 µM (inactive)	17.9 µM (inactive)	37.8 µM (inactive)	4 µM (inactive)	92.5 µM (inactive)	> 100 µM (inactive)	52 µM (inactive)	18.7 µM (inactive)	> 100 µM (inactive)	> 100 µM (inactive)	58.2 µM (inactive)	> 100 µM (inactive)
CC(=O)OCc1nnn2c1CCC2	> 100 µM (inactive)	> 100 µM (inactive)	> 100 µM (inactive)	> 100 µM (inactive)	> 100 µM (inactive)	> 100 µM (inactive)	> 100 µM (inactive)	> 100 µM (inactive)	> 100 µM (inactive)	> 100 µM (inactive)	> 100 µM (inactive)	> 100 µM (inactive)	> 100 µM (inactive)	> 100 µM (inactive)	> 100 µM (inactive)	–	–	–	–	–
C=C(C)C(=O)OC1CCC2(C)C(CCC3C2CCC2(C)C(c4ccc(=O)oc4)CC4OC432)C1 (stereo not given)	2.31 µM (inactive)	3.26 µM (inactive)	5.19 µM (inactive)	2.75 µM (inactive)	0.57 µM (active)	–	2.41 µM (inactive)	8.13 µM (inactive)	1.25 µM (inactive)	2.95 µM (inactive)	30.4 µM (inactive)	2.78 µM (inactive)	20.5 µM (inactive)	7.38 µM (inactive)	4.75 µM (inactive)	4.07 µM (inactive)	9.42 µM (inactive)	1.6 µM (inactive)	5.31 µM (inactive)	6.46 µM (inactive)
O=C1CC2(CCC(O)(c3cccs3)C(C(=O)c3cccs3)C2)C(=O)c2ccccc2N1 (stereo not given)	95.7 µM (inactive)	22.5 µM (inactive)	38.5 µM (inactive)	53 µM (inactive)	29.2 µM (inactive)	> 100 µM (inactive)	29 µM (inactive)	> 100 µM (inactive)	16.5 µM (inactive)	–	> 100 µM (inactive)	> 100 µM (inactive)	> 100 µM (inactive)	37.7 µM (inactive)	> 100 µM (inactive)	> 100 µM (inactive)	> 100 µM (inactive)	–	> 100 µM (inactive)	67.1 µM (inactive)
O=C1C=C(C2OC(CO)C(O)C2O)C(=O)N1 (stereo not given)	> 100 µM (inactive)	32.5 µM (inactive)	> 100 µM (inactive)	> 100 µM (inactive)	45.9 µM (inactive)	–	45.6 µM (inactive)	> 100 µM (inactive)	> 100 µM (inactive)	19.8 µM (inactive)	> 100 µM (inactive)	> 100 µM (inactive)	> 100 µM (inactive)	> 100 µM (inactive)	> 100 µM (inactive)	–	> 100 µM (inactive)	> 51.1 µM (inactive)	> 100 µM (inactive)	> 100 µM (inactive)
CCOc1ccc(NC(=O)C(=O)CC(=O)c2sc(NNC(C)=O)nc2C)cc1	> 100 µM (inactive)	> 100 µM (inactive)	> 100 µM (inactive)	> 100 µM (inactive)	> 100 µM (inactive)	> 100 µM (inactive)	> 100 µM (inactive)	–	> 100 µM (inactive)	> 100 µM (inactive)	> 100 µM (inactive)	> 100 µM (inactive)	> 100 µM (inactive)	> 100 µM (inactive)	> 100 µM (inactive)	> 100 µM (inactive)	> 100 µM (inactive)	> 100 µM (inactive)	> 100 µM (inactive)	–
CN(Cc1cnc2nc(N)nc(N)c2n1)c1ccc(C(=O)NC(CCC(=O)O)C(=O)O)cc1C(F)(F)F (stereo not given)	< 0.01 µM (active)	< 0.01 µM (active)	< 0.01 µM (active)	–	< 0.01 µM (active)	–	< 0.01 µM (active)	> 100 µM (inactive)	< 0.01 µM (active)	< 0.01 µM (active)	< 0.01 µM (active)	> 100 µM (inactive)	> 100 µM (inactive)	> 100 µM (inactive)	< 0.01 µM (active)	< 0.01 µM (active)	–	< 0.01 µM (active)	< 0.01 µM (active)	< 0.01 µM (active)
COc1ccc2c(c1)C(=O)/C(=C/c1ccccc1)C2	–	11.3 µM (inactive)	–	–	> 10 µM (inactive)	27 µM (inactive)	16.3 µM (inactive)	> 100 µM (inactive)	34 µM (inactive)	45.2 µM (inactive)	52.5 µM (inactive)	43.9 µM (inactive)	> 100 µM (inactive)	46.5 µM (inactive)	49.7 µM (inactive)	20.2 µM (inactive)	25 µM (inactive)	45.7 µM (inactive)	–	24.7 µM (inactive)
CN(C(=O)C1(C(=O)C=[N+]=[N-])CC1)c1ccccc1	> 100 µM (inactive)	> 100 µM (inactive)	> 100 µM (inactive)	> 100 µM (inactive)	> 100 µM (inactive)	> 100 µM (inactive)	> 100 µM (inactive)	> 100 µM (inactive)	> 100 µM (inactive)	83.6 µM (inactive)	> 100 µM (inactive)	> 100 µM (inactive)	–	> 100 µM (inactive)	> 100 µM (inactive)	–	> 100 µM (inactive)	> 100 µM (inactive)	> 100 µM (inactive)	> 100 µM (inactive)
COc1ccc(-c2cc3[nH]nc(N)c3c(=O)o2)cc1	> 100 µM (inactive)	> 100 µM (inactive)	> 100 µM (inactive)	> 100 µM (inactive)	90.4 µM (inactive)	> 100 µM (inactive)	> 100 µM (inactive)	> 100 µM (inactive)	> 100 µM (inactive)	–	> 100 µM (inactive)	55.3 µM (inactive)	–	97.3 µM (inactive)	> 100 µM (inactive)	73.6 µM (inactive)	–	> 100 µM (inactive)	81.3 µM (inactive)	–
COc1ccc(/C(C#N)=C2/O/C(=N/N)C(c3ccc(OC)c(OC)c3)C2=O)cc1OC (stereo not given)	> 100 µM (inactive)	> 100 µM (inactive)	–	> 100 µM (inactive)	> 100 µM (inactive)	> 100 µM (inactive)	> 100 µM (inactive)	> 100 µM (inactive)	–	> 100 µM (inactive)	–	–	> 100 µM (inactive)	> 100 µM (inactive)	> 100 µM (inactive)	> 100 µM (inactive)	> 100 µM (inactive)	> 100 µM (inactive)	> 100 µM (inactive)	–
Cc1occc1/C(S)=N\c1ccc(Cl)c(C(=O)OCC(F)(F)F)c1	23.1 µM (inactive)	17.9 µM (inactive)	18.7 µM (inactive)	17.9 µM (inactive)	24.4 µM (inactive)	33.7 µM (inactive)	18.2 µM (inactive)	29.8 µM (inactive)	22.1 µM (inactive)	20.4 µM (inactive)	34.6 µM (inactive)	–	22.3 µM (inactive)	24.1 µM (inactive)	19.4 µM (inactive)	14.7 µM (inactive)	18.6 µM (inactive)	19 µM (inactive)	20.7 µM (inactive)	17.8 µM (inactive)
